One assay has as its system NF-κB. On the set-up: method as in PMID 23947936. To be noted: 1.25 µM; cited from earlier work.
In assay [1] the test system is HuCCA-1, KB, HeLa and T47D cell lines. Also noted: method as in PMID 21922909. To be noted: 48 h incubation, range over cell lines; cited from earlier work.
Assay [2] deals with caspase 3 (Casp-3) in THP-1 cells. Description: Western blotting of apoptosis-related proteins. As to conditions: THP-1, complexes 4 µM, 24 h, Western blot. It is filed as cell-based, human. How it is done:
In addition to the above-mentioned methods, the Western blotting method was used to shed light on the mechanisms associated with caspase 3 activation in the THP-1 cells. Two and a half milliliters of floating THP-1 monocytes resuspended in a serum-free RPMI 1640 medium were seeded into 6-well plates at the concentration of 10^6 cells/mL. Two hours later, complexes 3 and 5 were added at the concentration level of 4 µM. After 24 h incubation, the cells were collected by centrifugation (3000 g/5 min/4 °C), washed by cold PBS and resuspended in an ice-cold lysis buffer (50 mM Tris-HCl pH 7.5, 1 mM EGTA, 1 mM EDTA, 1 mM sodium orthovanadate, 50 mM sodium fluoride, 5 mM sodium pyrophosphate, 270 mM sucrose) with Roche cOmplete protease inhibitors (Roche Diagnostics, Basel, Switzerland). The cell lysates were centrifuged at 3000 g/5 min/4 °C and supernatants were mixed with a 5x Laemmli buffer [containing 250 mM Tris-HCl pH 6.8, 10% (w/v) SDS, 30% (v/v) glycerol, 5% (v/v) β-mercaptoethanol, 0.04% (w/v) bromphenol blue] and incubated at 70 °C for 5 min. […] The membranes were incubated at 4 °C for 16 h with a primary anti-cleaved caspase 3 (p17) antibody at the dilution 1:1000 (Cell Signaling, Danvers, MA, USA; products No. 9664), and an Apoptosis WB Cocktail (Abcam, Cambridge, UK; product No. ab136812) at the dilution recommended by the provider to detect β-actin, cleaved poly-(ADP-ribose) polymerase (PARP) and pro-caspase 3. After washing in a TBST buffer, the secondary anti-rabbit IgG antibody (Sigma-Aldrich, product No. A0545) was diluted 1:2500 and applied to the membranes, which were then incubated for 1 h at the laboratory temperature (~22 °C). The amount of bound secondary antibody was determined using an ECL reagent (Bio-Rad, Hercules, CA, USA). Chemiluminescence was detected using a Syngene PXi4 chemiluminescence imaging system (Cambridge, UK).
Background: In western blotting, separated proteins are transferred to a membrane and probed.

For the compound `CC(C)=CCc1c2c(c3occ(-c4ccc(O)c(O)c4)c(=O)c3c1O)C=CC(C)(C)O2` [pomiferin, 3-(3,4-dihydroxyphenyl)-5-hydroxy-8,8-dimethyl-6-(3-methylbut-2-ene-1-yl)-4H,8H-benzo[1,2-b:3,4-b′]dipyran-4-one], in the assay on NF-κB, the “NF-κB activation by inhibition of IκB degradation” value is recorded as “inhibited NF-κB activation”. Moreover, the ED50 in assay [1] was 0.6 to 24 µM.
In the case of “(3-(3,4-dihydroxyphenyl)-8,8-dimethyl-6-(3-methylbut-2-en-1-yl)-4H,8H-benzo[1,2-b:3,4-b′]dipyran-4-one-5-olato-κ^2O4:O5)(dipyrido[3,2-a:2′,3′-c]phenazine–κ^2N4:N5)copper(II) nitrate methanol solvate [Complex 5]”, the “levels of pro-caspase 3 (pro-Casp-3)” value in assay [2] is “dramatically decreased”. Further, in assay [2] (cisplatin 10 µM), the “proteolytically activated Casp-3 (verified by cleaved PARP-1)” value is “only minor activity of Casp-3”.

The record behind these values is paper PMC8305652, “Copper(II) Complexes Containing Natural Flavonoid Pomiferin Show Considerable In Vitro Cytotoxicity and Anti-inflammatory Effects” (International Journal of Molecular Sciences, 2021).
